This is an account of results in the METLIN SMRT retention time set (Domingo-Almenara et al. 2019).

A short description of the data set: gradient 5% acetonitrile 3 min, to 50% in 2 min, to 85% in 15 min, held 3 min, 100 µL/min. The following applies: column: Zorbax Extend-C18 2.1 x 50 mm; eluents: water / acetonitrile, 0.1% formic acid. Put shortly:
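The system's dead and dwell volumes were 40 μL and 900 μL, with a Zorbax Extend-C18 column (2.1 × 50 mm, 1.8 μm) run at 100 μL/min in water and acetonitrile containing 0.1% formic acid each. Pure standards were analyzed in mixtures of ~100 molecules by HPLC–quadrupole time-of-flight mass spectrometry in positive and negative ionization mode. Retention time was assigned from computationally picked, manually inspected adduct peaks.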
Turning to `CSc1ccc(CNC(=O)C2CCCN(c3nn4c(=O)c5c(nc4s3)CCCC5)C2)cc1` (centres undefined), the RP-LC retention time was determined as 792 s.
With `COc1ccc2c(c1)C1(CCN(C(=O)c3cccc(C)c3)C1)C(=O)N2` (centres undefined), the RP-LC retention time came out at 738 s.
As to `O=C(Nc1ccc(N2CCCCC2=O)cc1)c1cccc2ccccc12`, the RP-LC retention time worked out at 722 s.
In the case of `COc1ccc(CNC(=O)Cn2ncc3c(c2=O)N(C2CC2)C(=O)CS3)cc1`, the RP-LC retention time amounted to 667 s.
To `CSc1cccc(NC(=O)N2CCC(C)(C(=O)NCc3ccccc3)CC2)c1` belongs 852 s; to `Cc1ccc(S(=O)(=O)Nc2ccc3c(c2)CCC(=O)N3CC(C)C)cc1C`, 939 s.
`Cc1sc2ccn(Cc3ccc(F)cc3)c(=O)c2c1C(=O)NCCN1CCN(C)CC1` came in with an RP-LC retention time of 591 s.
For `CC(C)(C)c1cc(N2CCN(c3ccccn3)CC2)n2ncc(-c3ccc(Cl)cc3)c2n1` the value was 1220 s.
In turn, `COc1cccc(N2CCN(S(=O)(=O)c3ccsc3C(=O)NCC(C)C)CC2)c1` returned an RP-LC retention time of 1000 s.
`Cc1cc(NC(=O)NC(=O)c2ccccc2NC(=O)C(C)N)ccc1Oc1ncc(Br)cn1` (centres undefined) yielded an RP-LC retention time of 715 s.
On to `O=C1CCCc2c1cc(C(=O)Nc1ccc(F)cc1F)c(=O)n2-c1ccc(F)cc1`, for which the RP-LC retention time amounted to 785 s.
The compound `CCC(C)CC(=O)N1CCCN(C2=NS(=O)(=O)C(c3ccccc3)=C2C)CC1` (centres undefined) came in with an RP-LC retention time of 828 s.
With `Cc1cccc(-c2ncccc2CNS(=O)(=O)c2ccc(F)c(F)c2)c1`, the RP-LC retention time was found to be 755 s.
With `O=C(Nc1ccccc1F)C(=O)c1ccc[nH]1`, the RP-LC retention time was 858 s.
For `CCn1ccc(NC(=O)c2ccccc2)n1` the value was 694 s; for `CCc1cccc(N2C(=O)c3c(C(=O)OC)ncn3CC2(C)C(=O)NC2CCCC2)c1` (centres undefined), 615 s.
Turning to `COc1ccc(-c2nnc(-c3ccc(C)c(S(=O)(=O)NC(C)C(=O)O)c3)o2)cc1OC` (centres undefined), the RP-LC retention time is 748 s.
Turning to `COC(=O)N1CCc2ccc(F)cc2C1C(=O)Nc1ccc(OC)c(Cl)c1` (centres undefined), the RP-LC retention time was 874 s.
Take `COCCNC(=O)C(=O)NCC1(c2ccc(F)cc2)CCOCC1`: the RP-LC retention time came out at 676 s.
For `Cc1nc(-c2cc(S(=O)(=O)NCC(=O)NC3CCCC3)c(C)s2)no1` the value was 774 s; for `CCC1CCCCN1C(=O)Cc1c(C)nn(-c2nc(-c3ccc(C)cc3)cs2)c1C` (centres undefined), 1380 s; for `COc1ccc(CC(=O)N2CCC3(CC2)NC(=O)c2cccc(Cl)c2N3)cc1`, 761 s.
On to `Brc1cccc(-c2noc(Cn3ccnc3)n2)c1`, for which the RP-LC retention time came out at 650 s.
For `CN1C(=O)C2(CCN(C(=O)Nc3ccc4c(c3)OCCO4)C2)c2ccccc21` (centres undefined) the value was 748 s.
For `COc1ccccc1-c1noc(Cn2c(=O)n(Cc3ccccc3Cl)c(=O)c3sccc32)n1` the value was 1130 s; for `COc1ccc(-c2noc(Cn3nc(-c4ccccc4)ccc3=O)n2)cc1`, 953 s; for `CCCS(=O)(=O)N1CCC2(CC1)C(=O)N(c1cccc(F)c1)C2c1ccccc1` (centres undefined), 1120 s.
Consider `COCCn1cc(CCNC(=O)Nc2cc(F)c(F)c(F)c2)c2cccnc21`, for which the RP-LC retention time turned out to be 800 s.
Turning to `O=C(Nc1ccc(Cl)cc1)C1CCN(C(=O)c2ncn3c2COC(c2ccc(F)cc2)C3)CC1` (centres undefined), the RP-LC retention time came out at 874 s.
To `CCn1cc(C(=O)Nc2cccc(F)c2)c2cccnc21` belongs 892 s; to `CCOc1ccc(-c2noc(Cn3nc(-c4ccccc4F)ccc3=O)n2)cc1`, 1050 s; to `O=C(CCc1c(-c2ccc(Cl)cc2)nc2ccccn12)Nc1cccc(F)c1`, 795 s.
As to `COc1ccc(NC(=O)Cc2c(C)nn(-c3nc(-c4ccc(Cl)cc4)cs3)c2C)c(OC)c1`, the RP-LC retention time turned out to be 1230 s.
`Cc1ccccc1-c1cn(CC(=O)NCc2ccc(F)c(Cl)c2)nc1N1CCOCC1` gave an RP-LC retention time of 920 s.
Turning to `CCN(C(=O)CC(C)S(=O)(=O)c1ccc2c(c1)CCN2C(=O)C1CC1)c1ccccc1` (centres undefined), the RP-LC retention time was determined as 867 s.
Consider `CCN(CC)c1nc2ccsc2c(=O)n1CCC(=O)N1CCN(c2ccccn2)CC1`, for which the RP-LC retention time was determined as 683 s.
For the compound `COc1ccc(CN2CC(C(=O)N3CCCN(c4cc(=O)n(C)c(=O)n4C)CC3)CC2=O)cc1` (centres undefined), the RP-LC retention time was 629 s.
For `Cc1nn(C)c(C)c1CCNC(=O)Nc1cccc(Br)c1` the value was 677 s; for `O=c1c2cc(-c3ccc(F)cc3)nn2cnn1Cc1nc(-c2ccccc2Br)no1`, 1140 s.
With `Cc1ccc(N2CCCS2(=O)=O)cc1NS(=O)(=O)c1c(C)noc1C`, the RP-LC retention time came to 866 s.
Consider `O=C(NCCc1ccccc1)NCC1CCN(Cc2ccco2)CC1`, for which the RP-LC retention time was found to be 562 s.
As for `CCCCOC(=O)c1ccc(NC(=O)c2snnc2CC)cc1`, the RP-LC retention time came to 1010 s.
For `CCc1ccc(-n2nc(C)c3c(C(F)(F)F)cc(OCC(=O)NCc4ccco4)nc32)cc1` the value was 1300 s.
Turning to `COCCNC(=O)c1cc2c(n(-c3ccc(C(F)(F)F)cc3)c1=O)CCCC2=O`, the RP-LC retention time came to 786 s.
`Cc1ccccc1-c1nc(-c2ccc3c(c2)nnn3CCN2CCOCC2)no1` yielded an RP-LC retention time of 706 s.
Consider `CSc1c(C)c(SC)n2ccncc12`, for which the RP-LC retention time was 725 s.
On to `O=C(Nc1ccc2c(c1)OCCO2)C1CCCN(c2cnc3nccnc3c2)C1` (centres undefined), for which the RP-LC retention time was 689 s.
For `CNC(=O)C1CCN(Cc2cc3ccccc3n2Cc2ccc(Cl)cc2)CC1` the value was 708 s; for `CCCSCCCNC(=O)CN1C(=O)CCn2nc(-c3cn(C)c4ccccc34)cc21`, 832 s; for `Cc1ccccc1C(=O)CC1(O)C(=O)Nc2ccc(Br)cc21` (centres undefined), 804 s.
For `CCS(=O)(=O)Nc1ccc(C2(C(=O)NCc3ccc(F)cc3F)CCCCC2)cc1` the value was 972 s; for `CCC(C(=O)NCCc1c[nH]c2ccc(C)cc12)n1c2ccccc2c2cnn(C)c(=O)c21` (centres undefined), 957 s.
As to `O=C(c1cn2ccccc2n1)N1CCN(c2ccc(F)cc2)CC1`, the RP-LC retention time stood at 652 s.
`CCc1cccc(NC(=O)Cn2c(N)nc(C)cc2=O)c1` registered an RP-LC retention time of 618 s.
Turning to `Cc1cccc2nnc(N3CCN(C(=O)c4cccc(Br)c4)CC3)n12`, the RP-LC retention time is 683 s.
`CCN(C(=O)C1CCCN(c2ncnc3c2nc2n3CCCCC2)C1)c1cccc(Cl)c1` (centres undefined): the RP-LC retention time stood at 912 s.
`O=C(Nc1ccc(F)cc1)Nc1ccc2nc3n(c(=O)c2c1)CCC3`: the RP-LC retention time stood at 688 s.
`CCOC(=O)c1c(S(=O)(=O)N2CCC(C(=O)Nc3ccc(C)c(F)c3)CC2)c(C)n(CC)c1C` displayed an RP-LC retention time of 984 s.
Compound `COCc1nc(N(C)Cc2ccccc2)ncc1C(=O)O` displayed an RP-LC retention time of 804 s.
